This is an account of results in ChEMBL document CHEMBL2331113, “Synthesis of cyclic pyranopterin monophosphate, a biosynthetic intermediate in the molybdenum cofactor pathway” (J Med Chem, 2013).

Data set [1] in a line: Half life of aerial oxidation of the compound at pH 3. It is filed as physicochemical.
Data set [2] in a line: Prodrug conversion in Tris/HCl buffer assessed as Escherichia coli MPT synthase-mediated 2-amino-6-(3,4-dihydroxybut-1-ynyl)pteridin-4(3H)-one formation after 30 mins by HPLC analysis. The following applies: 0.5 h. It counts as ADME.
Data set [3] is described as follows: Prodrug conversion in HEPES buffer assessed as Escherichia coli MPT synthase-mediated 2-amino-6-(3,4-dihydroxybut-1-ynyl)pteridin-4(3H)-one formation measured as activation of human apo-sulfite oxidase incubated for 30 mins prior to apo-sulfite oxidase addition measured after 30 mins by spectrophotometric analysis in presence of gephyrin. The settings on record: 0.5 h.

`Nc1nc2c(c(=O)[nH]1)N[C@@H]1[C@H](N2)O[C@@H]2COP(=O)(O)O[C@@H]2C1(O)O` [FOSDENOPTERIN] gave a half-life in data set [1] of 10.6 h. Besides, the Drug metabolism result in data set [2] and in data set [3] was “Active” each time.

Regarding `Br.Nc1nc2c(c(=O)[nH]1)N[C@@H]1[C@H](N2)O[C@@H]2COP(=O)(O)O[C@@H]2C1(O)O`, the Drug metabolism result in data set [2] and in data set [3] was “Dose-dependent effect” in each case.
